The values that follow come from doi:10.1101/2023.08.31.555680v1 (biorxiv, 2023).

One assay deals with TsiA-FAST. To be noted: PBS pH […] presumably; details in supplement.
The next assay addresses RspA-FAST. To be noted: PBS pH […] presumably; details in supplement.
Assay [1] addresses RspA-splitFAST (assembled NC complex; FRB-RspA(N) + FKBP-RspA(C)). The following applies: read-out: Kd,F/C; […] each FRB-N and FKBP-C preassembled with […] rapamycin.

Regarding `COc1cc(/C=C2\SC(=S)NC2=O)cc(OC)c1O` [HBR-3,5DOM], the Kd was 60 nM on TsiA-FAST and 74 nM on RspA-FAST.

Consider `Cc1cc(/C=C2\SC(=S)NC2=O)ccc1O` [HMBR], for which the Kd in assay [1] worked out at 150 ± 10 nM.
